For orientation: MIC80 means an inhibitory concentration at the 80% level, which refers to growth in some studies and to a panel of isolates in others. A high value points to lower susceptibility. One may read the MIC as the lowest concentration that inhibits growth of the organism. Read a low MIC as a more susceptible organism.

Converted amounts (≈) assume the structure as drawn. The source made the active and inactive calls. The calls are words filed in the database; no cut-off is given here.

This is an account of results in ChEMBL document CHEMBL4219183, “Novel purine benzimidazoles as antimicrobial agents by regulating ROS generation and targeting clinically resistant Staphylococcus aureus DNA groove” (Bioorg Med Chem Lett, 2018).

Data set [1] has as its system DNA. The data set can be described thus: Binding affinity to Staphylococcus aureus genomic DNA at pH 7.4 at 304 K by fluorescence quenching analysis. Type of data set: nucleic-acid assay.
In data set [2] the test system is DNA. The data set can be described thus: Binding affinity to Staphylococcus aureus genomic DNA assessed as modified Stern-Volmer quenching constant at pH 7.4 at 304 K by fluorescence quenching analysis. It counts as nucleic-acid assay.
Data set [3] relates to DNA. The data set can be described thus: Binding affinity to Staphylococcus aureus genomic DNA assessed as gibbs free energy change at 294 K. Type of data set: nucleic-acid assay.
For a further data set, the system named is Candida parapsilosis. The data set can be described thus: Antifungal activity against Candida parapsilosis ATCC 22019 after 24 hrs by two fold serial dilution method. It counts as functional. The note with it: ATCC 22019, 24 h.
The test system of a further data set is Aspergillus fumigatus. The data set can be described thus: Antifungal activity against Aspergillus fumigatus after 24 hrs by two fold serial dilution method. It counts as functional.
For data set [4], the system named is DNA. The data set can be described thus: Inhibition of neutral red binding to Staphylococcus aureus genomic DNA up to 20 x 10^-6mol/L by UV absorption spectral analysis. Type of data set: nucleic-acid assay.
A further data set relates to Acinetobacter baumannii. The data set can be described thus: Antibacterial activity against Acinetobacter baumannii after 24 hrs by two fold serial dilution method. It counts as functional.
Another data set has as its system Candida tropicalis. The data set can be described thus: Antifungal activity against Candida tropicalis after 24 hrs by two fold serial dilution method. It counts as functional.
Data set [5] deals with DNA. The data set can be described thus: Binding affinity to Staphylococcus aureus genomic DNA assessed as change in entropy at 304 K. Type of data set: nucleic-acid assay.
In data set [6] the test system is DNA. The data set can be described thus: Binding affinity to Staphylococcus aureus genomic DNA assessed as hyperchromic shift at 2.5 to 20 x 10^-6mol/L by UV absorption spectral analysis. Type of data set: nucleic-acid assay.
The subject of data set [7] is DNA. The data set can be described thus: Binding affinity to Staphylococcus aureus genomic DNA at pH 7.4 at 294 K by fluorescence quenching analysis. Type of data set: nucleic-acid assay.
The test system of data set [8] is Staphylococcus aureus. The data set can be described thus: Antibacterial activity against Staphylococcus aureus after 24 hrs by two fold serial dilution method. Type of data set: functional.
Data set [9] concerns DNA. The data set can be described thus: Binding affinity to Staphylococcus aureus genomic DNA assessed as gibbs free energy change at 304 K. Type of data set: nucleic-acid assay.
Data set [10] concerns Pseudomonas aeruginosa. The data set can be described thus: Antibacterial activity against Pseudomonas aeruginosa ATCC 27853 after 24 hrs by two fold serial dilution method. Type of data set: functional. To be noted: ATCC 27853, 24 h.
In data set [11] the test system is DNA. The data set can be described thus: Binding affinity to Staphylococcus aureus genomic DNA assessed as modified Stern-Volmer quenching constant at pH 7.4 at 314 K by fluorescence quenching analysis. Type of data set: nucleic-acid assay.
The next data set concerns Klebsiella pneumoniae. The data set can be described thus: Antibacterial activity against Klebsiella pneumoniae after 24 hrs by two fold serial dilution method. It counts as functional.
The subject of data set [12] is Pseudomonas aeruginosa. The data set can be described thus: Antibacterial activity against Pseudomonas aeruginosa after 24 hrs by two fold serial dilution method. It counts as functional.
Data set [13] deals with DNA. The data set can be described thus: Binding affinity to Staphylococcus aureus genomic DNA assessed as modified Stern-Volmer quenching constant at pH 7.4 at 294 K by fluorescence quenching analysis. It counts as nucleic-acid assay.
Data set [14] concerns DNA. The data set can be described thus: Binding affinity to Staphylococcus aureus genomic DNA assessed as change in enthalpy at 304 K. It counts as nucleic-acid assay.
Data set [15] has as its system Staphylococcus aureus. The data set can be described thus: Antibacterial activity against Staphylococcus aureus ATCC 25923 after 24 hrs by two fold serial dilution method. Type of data set: functional. The note with it: ATCC 25923, 24 h.
In data set [16] the test system is Candida albicans. The data set can be described thus: Antifungal activity against Candida albicans ATCC 90023 after 24 hrs by two fold serial dilution method. Type of data set: functional. To be noted: ATCC 90023, 24 h.
Data set [17] has as its system Escherichia coli. The data set can be described thus: Antibacterial activity against Escherichia coli after 24 hrs by two fold serial dilution method. Type of data set: functional.
For data set [18], the system named is DNA. The data set can be described thus: Binding affinity to Staphylococcus aureus genomic DNA assessed as gibbs free energy change at 314 K. Type of data set: nucleic-acid assay.
In data set [19] the test system is DNA. The data set can be described thus: Binding affinity to Staphylococcus aureus genomic DNA assessed as iodide quenching constant at pH 7.4 by fluorescence quenching analysis (reference value: 28.74 L/mol). Type of data set: nucleic-acid assay.
The subject of data set [20] is Candida albicans. The data set can be described thus: Antifungal activity against Candida albicans after 24 hrs by two fold serial dilution method. Type of data set: functional.
Data set [21] has as its system Staphylococcus aureus. The data set can be described thus: Potency index, ratio of norfloxacin MIC to compound MIC for Staphylococcus aureus. It counts as functional.
In data set [22] the test system is DNA. The data set can be described thus: Binding affinity to Staphylococcus aureus genomic DNA by UV absorption spectral analysis. It counts as nucleic-acid assay.
For data set [23], the system named is Escherichia coli. The data set can be described thus: Antibacterial activity against Escherichia coli ATCC 25922 after 24 hrs by two fold serial dilution method. It counts as functional. To be noted: ATCC 25922, 24 h.
A further data set has as its system HeLa. The data set can be described thus: Induction of ROS generation in human HeLa cells at 6.25 to 50 uM by DCFH-DA staining based fluorescence microscopic method. Type of data set: cell-based.
Data set [24] relates to DNA. The data set can be described thus: Binding affinity to Staphylococcus aureus genomic DNA at pH 7.4 at 314 K by fluorescence quenching analysis. Type of data set: nucleic-acid assay.
For data set [25], the system named is Staphylococcus aureus. The data set can be described thus: Antibacterial activity against Staphylococcus aureus ATCC 29213 after 24 hrs by two fold serial dilution method. To be noted: ATCC 29213, 24 h. Type of data set: functional.
Data set [26] can be described thus: Cytotoxicity against human A549 cells assessed as cell viability at <500 ug/ml after 48 hrs by MTT assay relative to control. It counts as cell-based. The note with it: read-out: Activity.
The test system of data set [27] is Staphylococcus aureus. The data set can be described thus: Antibacterial activity against methicillin-resistant Staphylococcus aureus N315 after 24 hrs by two fold serial dilution method. It counts as functional. The note with it: N315, 24 h.
The next data set deals with Enterococcus faecalis. The data set can be described thus: Antibacterial activity against Enterococcus faecalis after 24 hrs by two fold serial dilution method. Type of data set: functional.

Take `CCCCCCn1c(Cn2cnc3c(N4CCOCC4)ncnc32)nc2ccccc21`: the KSV in the data set with DNA [1] came out at 1.52 ×10⁴ L/mol; in the data set on DNA [7] it was 1.87 ×10⁴ L/mol; in the data set with DNA [19], 78.2 L/mol; in the data set with DNA [24], 1.21 ×10⁴ L/mol. The results for the Ka with DNA [2], in the data set on DNA [11] and in the data set on DNA [13] were 2.33 ×10⁴ L/mol, 1.73 ×10⁴ L/mol and 3.76 ×10⁴ L/mol, respectively. Further, the values for the deltaG with DNA [3], in the data set with DNA [9] and in the data set with DNA [18] were -6.16 kcal/mol, -6.13 kcal/mol and -6.09 kcal/mol, respectively. In addition, the MIC80 was determined as 128 µg/mL (≈ 305 µM) against Candida parapsilosis; 128 µg/mL (≈ 305 µM) against Aspergillus fumigatus; 64 µg/mL (≈ 153 µM) against Candida tropicalis; 32 µg/mL (≈ 76.3 µM) in the data set on Candida albicans [16]; 32 µg/mL (≈ 76.3 µM) with Candida albicans [20]. Also, in the data set on DNA [4], the inhibition result is “inactive”. Further, the MIC was 64 µg/mL (≈ 153 µM) against Acinetobacter baumannii; 4 µg/mL (≈ 9.53 µM) with Staphylococcus aureus [8]; 16 µg/mL (≈ 38.1 µM) with Pseudomonas aeruginosa [10]; 64 µg/mL (≈ 153 µM) in the data set with Klebsiella pneumoniae; 64 µg/mL (≈ 153 µM) against Pseudomonas aeruginosa [12]; 64 µg/mL (≈ 153 µM) with Staphylococcus aureus [15]. Also, the minimal inhibitory concentration (MIC) in the data set on Escherichia coli [17] amounted to 128 µg/mL (≈ 305 µM); against Escherichia coli [23], 8 µg/mL (≈ 19.1 µM); with Staphylococcus aureus [25], 512 µg/mL (≈ 1220 µM); with Staphylococcus aureus [27] it was 16 µg/mL (≈ 38.1 µM); against Enterococcus faecalis, 128 µg/mL (≈ 305 µM). Besides, the deltaS in the data set on DNA [5] was -13.6 J/mol.K. Moreover, in the data set with DNA [6], the result was Active. The deltaH with DNA [14] is -7.12 kcal/mol. In addition, the Ratio in the data set on Staphylococcus aureus [21] came out at 16. The K in the data set on DNA [22] was 4.92 ×10⁵ L/mol. In addition, the Activity entry in the data set with HeLa was “Non-Toxic”. Moreover, the viability at 48 h in data set [26] was more than 85%.
For `Cc1cc2ncn(CCn3cnc4c(N5CCOCC5)ncnc43)c2cc1C`, the MIC80 against Candida parapsilosis amounted to 256 µg/mL (≈ 678 µM); with Aspergillus fumigatus it was 128 µg/mL (≈ 339 µM); against Candida tropicalis it was 128 µg/mL (≈ 339 µM); with Candida albicans [16] it was 128 µg/mL (≈ 339 µM); against Candida albicans [20], 256 µg/mL (≈ 678 µM). Also, the MIC was determined as 256 µg/mL (≈ 678 µM) against Acinetobacter baumannii; 256 µg/mL (≈ 678 µM) against Staphylococcus aureus [8]; 128 µg/mL (≈ 339 µM) with Pseudomonas aeruginosa [10]; 64 µg/mL (≈ 170 µM) against Klebsiella pneumoniae; 32 µg/mL (≈ 84.8 µM) with Pseudomonas aeruginosa [12]; 256 µg/mL (≈ 678 µM) with Staphylococcus aureus [15]. In addition, the MIC with Escherichia coli [17] amounted to 256 µg/mL (≈ 678 µM); against Escherichia coli [23], 256 µg/mL (≈ 678 µM); against Staphylococcus aureus [25], 128 µg/mL (≈ 339 µM); in the data set on Staphylococcus aureus [27], 256 µg/mL (≈ 678 µM); with Enterococcus faecalis it was 128 µg/mL (≈ 339 µM).
`Clc1ccccc1Cn1c(Cn2cnc3c(N4CCOCC4)ncnc32)nc2ccccc21`: the MIC80 in the data set on Candida parapsilosis, in the data set with Aspergillus fumigatus, in the data set with Candida tropicalis, in the data set with Candida albicans [16] and against Candida albicans [20] was 256 µg/mL (≈ 557 µM) throughout. Besides, the MIC with Acinetobacter baumannii worked out at 256 µg/mL (≈ 557 µM); against Staphylococcus aureus [8], 256 µg/mL (≈ 557 µM); with Pseudomonas aeruginosa [10], 64 µg/mL (≈ 139 µM); with Klebsiella pneumoniae, 64 µg/mL (≈ 139 µM); in the data set with Pseudomonas aeruginosa [12], 128 µg/mL (≈ 278 µM); against Staphylococcus aureus [15], 256 µg/mL (≈ 557 µM). The MIC amounted to 128 µg/mL (≈ 278 µM) in the data set with Escherichia coli [17]; 256 µg/mL (≈ 557 µM) against Escherichia coli [23]; 32 µg/mL (≈ 69.6 µM) in the data set on Staphylococcus aureus [25]; 512 µg/mL (≈ 1110 µM) against Staphylococcus aureus [27]; 256 µg/mL (≈ 557 µM) against Enterococcus faecalis.
For the compound `CCCCCCCCn1c(Cn2cnc3c(N4CCOCC4)ncnc32)nc2ccccc21`, the MIC80 stood at 512 µg/mL (≈ 1140 µM) against Candida parapsilosis; 512 µg/mL (≈ 1140 µM) against Aspergillus fumigatus; 256 µg/mL (≈ 572 µM) against Candida tropicalis; 64 µg/mL (≈ 143 µM) in the data set with Candida albicans [16]; 256 µg/mL (≈ 572 µM) in the data set with Candida albicans [20]. The MIC in the data set on Acinetobacter baumannii came out at 256 µg/mL (≈ 572 µM); in the data set on Staphylococcus aureus [8], 512 µg/mL (≈ 1140 µM); with Pseudomonas aeruginosa [10], 128 µg/mL (≈ 286 µM); with Klebsiella pneumoniae it was 256 µg/mL (≈ 572 µM); in the data set with Pseudomonas aeruginosa [12], 256 µg/mL (≈ 572 µM); in the data set with Staphylococcus aureus [15] it was 512 µg/mL (≈ 1140 µM). In addition, the MIC in the data set with Escherichia coli [17] came to 256 µg/mL (≈ 572 µM); against Escherichia coli [23], 256 µg/mL (≈ 572 µM); with Staphylococcus aureus [25], 256 µg/mL (≈ 572 µM); in the data set on Staphylococcus aureus [27], 512 µg/mL (≈ 1140 µM); against Enterococcus faecalis, 256 µg/mL (≈ 572 µM).
